Where two headings read alike, the source gives them in different places. No end group written: not given here.
What was measured:
[1] = test system: antiserum (rabbit, Peptide 7-KLH conjugate as antigen); experiment: Binding specificity of antiserum by competitive RIA with [125I]-labeled Peptide 1
Description: As controls, reactions that use RIA buffer instead of the antiserum to measure non-specific binding, and reactions […] that use RIA buffer instead of VGF-derived peptide solutions to measure the maximum binding level were carried out. Reactions for non-specific binding were performed in quadruplicates, and the other reactions were performed in duplicates, and for each of the reactants, the immune complex was precipitated as in the above-mentioned antibody titer measurements, and its radioactivity (cpm) was measured. The average radioactivity of non-specific binding reaction is defined as non-specific binding level N, the radioactivity value for each VGF-derived peptide addition reaction is defined as Y, and the radioactivity value of maximum binding reaction is defined as Z. The percentage ratio (B/B0) of antiserum specific binding level (B) with peptide addition to the maximum binding level (B0), was determined using the following formula.
B/B0 (%)={(Y−N)/(Z−N)}×100
Accordingly, the amount of peptide that achieves 50% B/B0, more specifically, the amount of peptide that yields 50% inhibition of the maximum binding level, was used as an indicator of the peptide binding activity to the antiserum.
The amounts of peptide/tube used for performing the measurements were 0.5, 1, 2, 4, 8, 16, 32, 64, 128, 256, 512 and 1024 fmol for Peptide 1; 1, 2, 4, 8, 16, 32, 64, 128, 256, 512 and 1024 fmol for Peptide 2; 1, 3.3, 10, 33, 100, 333, 1000, 3300, 10,000, 33,000, 100,000, 333,000 and 1,000,000 fmol for Peptide 3; and 1,000, 10,000, 100,000 and 1,000,000 fmol for Peptide 8.

[2] = direct administration to the paraventricular nucleus of the hypothalamus of male rats; Non-Patent Document 6; cited from earlier work
[3] = test system: vascular cells of the apoaequorin-expressing mice; experiment: Intracellular calcium ion increase (aequorin luminescence), blood vessel of apoaequorin-expressing mice; type: cell-based, mouse; details: for intracellular calcium concentration in vascular cells (RLU per second): 5 μmol/L of peptide, added at 25 seconds; for luminescence in the blood vessel: organ pieces, peptide final concentrations of 1 μmol/L and of 5 μmol/L
Description: (§1) A heart or blood vessel is collected from transgenic mice systemically expressing apoaequorin (WO02/010371) produced by introducing an apoaequorin gene expression vector into fertilized eggs. The obtained heart or blood vessel is cut finely into pieces, suspended in a medium containing coelenterazine, and then incubated to incorporate coelenterazine into the cells to form aequorin (a complex of apoaequorin and coelenterazine). Since aequorin luminesces upon binding to intracellular calcium ions, the relative luminescence level in cells before and after addition of a medium containing the peptide or a pharmaceutically acceptable salt thereof is measured in a luminometer every second over time and is used as an indicator of intracellular calcium ion concentration. Increase in the relative luminescence level due to addition of the peptide or pharmaceutically acceptable salt thereof confirms that the peptide or pharmaceutically acceptable salt thereof has the activity to increase intracellular calcium ion concentration.
(§2) Whether Peptides 1 to 5, 9 and 10 synthesized in Example 2 have the activity of increasing intracellular calcium ion concentration was investigated using the organs of transgenic mice introduced with the apoaequorin gene and systemically expressing apoaequorin (hereinafter referred to as apoaequorin-expressing mice). In apoaequorin-expressing mouse cells, light is emitted when apoaequorin binds to a calcium ion in the presence of the luminescent substrate coelenterazine and thus the intracellular calcium ion concentration can be monitored. Patent Document (WO02/010371) discloses the method for producing apoaequorin-expressing mice, method for evaluating biologically active substances that use biological samples derived from the mice, and experimental results of evaluating biologically active peptides using the mouse organs as shown below. […] Therefore, apoaequorin-expressing mice can be used in the evaluation of the physiological activities of novel peptides.
(§3) Apoaequorin-expressing mice were produced according to the method disclosed in Reference Example 4 of Patent Document (WO02/010371). The apoaequorin-expressing mice were sacrificed, individual organs including thymus, spleen, bone, blood vessel, heart, kidney, adrenal gland, pancreas, pituitary gland, and uterus, were removed; and each of the organs was cut into small cubes of approximately 1 to 2 mm^3. Next, in 5-mL tubes (Rohren-Tubes; manufactured by Sarstedt, No. 55.476), three portions of each of the prepared organs were added to 50 μL of a 10 μmol/L solution of coelenterazine (manufactured by Molecular Probes) dissolved in RPMI 1640 medium, and these were cultured at 37° C. for three hours. After culturing, RPMI 1640 medium was added, and then Peptides 1 to 5, 9 and 10 dissolved in RPMI 1640 medium were added 25 seconds after the addition of RPMI 1640 until each peptide had final concentrations of 1 μmol/L and of 5 μmol/L, and the relative luminescence levels were measured every second immediately after the addition of RPMI 1640 medium by using a luminometer (AutoLumat LB953, manufactured by Berthold).

uterus [4] = experiment: Aequorin luminescence, uterus of apoaequorin-expressing mice; type: cell-based, mouse; details: organ pieces, peptide final concentrations of 1 μmol/L and of 5 μmol/L
Excerpt: as §2, §3

thymus = experiment: Aequorin luminescence, thymus of apoaequorin-expressing mice; type: cell-based, mouse; details: organ pieces, peptide final concentrations of 1 μmol/L and of 5 μmol/L
Excerpt: as §2, §3

pituitary gland = experiment: Aequorin luminescence, pituitary gland of apoaequorin-expressing mice; type: cell-based, mouse; details: organ pieces, peptide final concentrations of 1 μmol/L and of 5 μmol/L
Excerpt: as §2, §3

[5] = test system: cardiac cells of the apoaequorin-expressing mice; experiment: Intracellular calcium ion increase (aequorin luminescence), heart of apoaequorin-expressing mice; type: cell-based, mouse; details: for intracellular calcium concentration in cardiac cells (RLU per second): added at 25 seconds; for luminescence in the heart: organ pieces, peptide final concentrations of 1 μmol/L and of 5 μmol/L
Description: as §1, §2, §3

spleen = experiment: Aequorin luminescence, spleen of apoaequorin-expressing mice; type: cell-based, mouse; details: organ pieces, peptide final concentrations of 1 μmol/L and of 5 μmol/L
Excerpt: as §2, §3

uterus [6] = details: final concentration of 1 μmol/L; reported in WO02/010371; cited from earlier work
adrenal gland = details: final concentration of 1 μmol/L; reported in WO02/010371; cited from earlier work
[7] = test system: vascular cells of the apoaequorin-expressing mice; details: final concentration of 1 μmol/L; reported in WO02/010371; cited from earlier work
[8] = target: antiserum showing an antibody titer of 9×10^5 (rabbit antiserum raised against the conjugate between Peptide 7 and KLH); experiment: competitive RIA against [^125I]-labeled Peptide 1
[9] = non-VGF peptides at 1, 10, and 100 pmol
[10] = VGF-derived peptides, sequentially diluted

## neuromedin U-8
[1]; [9]
  inhibition of antiserum binding to [125I]-labeled Peptide 1: none of the peptides showed inhibition

## calcitonin
[1]; [9]
  inhibition of antiserum binding to [125I]-labeled Peptide 1: none of the peptides showed inhibition

## calcitonin receptor-stimulating peptide
[1]; [9]
  inhibition of antiserum binding to [125I]-labeled Peptide 1: none of the peptides showed inhibition

## Peptide 8: positions 606 to 615 of the human VGF amino acid sequence (YIEHVLLRRP; synthetic Peptide 8, positions 606-615 of human VGF, C-terminal VGF-derived peptide)
[1]; [10]
  inhibition of antiserum binding to [125I]-labeled Peptide 1: did not show any inhibition

## rat VGF (556-576): partial peptide of rat VGF, positions 556-576
[2]
  erection inducing activity: this activity was not observed

## PHI-27 (HADGVFTSDFSKLLGQLSAKKYLESLM; ends and bridges not checked; UniProt P01282 81-107, looked up) [non-VGF peptide]
[1]; [9]
  inhibition of antiserum binding to [125I]-labeled Peptide 1: none of the peptides showed inhibition

## adrenomedulin
[1]; [9]
  inhibition of antiserum binding to [125I]-labeled Peptide 1: none of the peptides showed inhibition

## substance K
[1]; [9]
  inhibition of antiserum binding to [125I]-labeled Peptide 1: none of the peptides showed inhibition

## corticotropin-releasing factor
[1]; [9]
  inhibition of antiserum binding to [125I]-labeled Peptide 1: none of the peptides showed inhibition

## rat VGF (599-617): partial peptide of rat VGF (556-617), positions 599-617 (LQEQEELENYIEHVLLHRP; UniProt P20156 599-617, looked up, fragment)
[2]
  erection inducing activity: showed an erection inducing activity

## Peptide 9: positions 485 to 503 of the amino acid sequence of human VGF (NAPPEPVPPPRAAPAPTHV; synthetic Peptide 9, positions 485-503 of human VGF, C-terminal VGF-derived peptide)
[3]
  intracellular calcium concentration in vascular cells (RLU per second): increase of intracellular calcium concentration
  luminescence in the blood vessel: luminescence was observed

## Leu-enkephalin
[1]; [9]
  inhibition of antiserum binding to [125I]-labeled Peptide 1: none of the peptides showed inhibition

## Met-enkephalin-Arg-Gly-Leu (YGGFMRGL) [non-VGF peptide]
[1]; [9]
  inhibition of antiserum binding to [125I]-labeled Peptide 1: none of the peptides showed inhibition

## NC(=O)CC[C@@H]1NC(=O)[C@H](Cc2ccccc2)NC(=O)[C@H](Cc2ccc(O)cc2)NC(=O)[C@@H](N)CSSC[C@@H](C(=O)N2CCC[C@H]2C(=O)N[C@@H](CCCN=C(N)N)C(=O)NCC(N)=O)NC(=O)[C@H](CC(N)=O)NC1=O [vasopressin]
[1]; [9]
  inhibition of antiserum binding to [125I]-labeled Peptide 1: none of the peptides showed inhibition

## HYHHALPPSRHYP [Peptide 1]
Uterus [4]
  luminescence in the uterus: luminescence was observed
[1]; [10]
  inhibition of antiserum binding to [125I]-labeled Peptide 1: same degree of quantity-dependent inhibition
[1]; antiserum diluted 9×10^5 folds, 4° C. for 40 hours
  amount of peptide for 50% inhibition of the maximum binding level (50% B/B0): 7.5 fmol
thymus
  luminescence in the thymus: luminescence was observed
Pituitary gland
  luminescence in the pituitary gland: luminescence was observed
[5]; 1 μmol/L of peptide
  intracellular calcium concentration in cardiac cells (RLU per second): increase of intracellular calcium concentration
[5]
  luminescence in the heart: luminescence was observed

## PAMP-20
[1]; [9]
  inhibition of antiserum binding to [125I]-labeled Peptide 1: none of the peptides showed inhibition

## rat VGF (588-617): partial peptide of rat VGF (556-617), positions 588-617 (AQEEADAEERRLQEQEELENYIEHVLLHRP; UniProt P20156 588-617, looked up, fragment)
[2]
  erection inducing activity: showed an erection inducing activity

## rat VGF (577-617): partial peptide of rat VGF (556-617), positions 577-617 (HHPDLEAQARRAQEEADAEERRLQEQEELENYIEHVLLHRP; UniProt P20156 577-617, looked up, fragment)
[2]
  erection inducing activity: showed an erection inducing activity

## Peptide 4: positions 586 to 615 of human VGF; same sequence as peptide V derived from bovine VGF (AQEEAEAEERRLQEQEELENYIEHVLLRRP; synthetic Peptide 4, positions 586-615 of human VGF, C-terminal VGF-derived peptide)
[3]
  intracellular calcium concentration in vascular cells (RLU per second): increase of intracellular calcium concentration
  luminescence in the blood vessel: luminescence was observed
spleen
  luminescence in the spleen: luminescence was observed
thymus
  luminescence in the thymus: luminescence was observed
Pituitary gland
  luminescence in the pituitary gland: luminescence was observed

## Peptide 10: positions 533 to 552 of the amino acid sequence of human VGF (EEDEVYPPGPYHPFPNYIRP; synthetic Peptide 10, positions 533-552 of human VGF, C-terminal VGF-derived peptide)
[3]
  intracellular calcium concentration in vascular cells (RLU per second): increase in the intracellular calcium concentration
  luminescence in the blood vessel: luminescence was observed
[5]; 1 μmol/L of peptide
  intracellular calcium concentration in cardiac cells (RLU per second): increase of intracellular calcium concentration
[5]
  luminescence in the heart: luminescence was observed

## angiotensin II (DRVYIHPF) [non-VGF peptide]
Uterus [6]
  luminescence in the uterus: strong luminescence was observed
[1]; [9]
  inhibition of antiserum binding to [125I]-labeled Peptide 1: none of the peptides showed inhibition
Adrenal gland
  luminescence in the adrenal glands: strong luminescence was observed
[7]
  luminescence in the blood vessels: strong luminescence was observed

## H-TLQPPSALRRRHYHHALPPSRHYPGREAQA-OH [Peptide 3 (SEQ ID NO: 2)]
[8]
  fold amount required for the same degree of inhibition as Peptides 1 and 2: 10000 fold

B1: Peptide 5: positions 554 to 615 in the amino acid sequence of human VGF (peptide)
chain: TLQPPSALRRRHYHHALPPSRHYPGREAQARRAQEEAEAEERRLQEQEELENYIEHVLLRRP
modifications: synthetic Peptide 5, positions 554-615 of human VGF, C-terminal VGF-derived peptide
[5]; 5 μmol/L of peptide
  intracellular calcium concentration in cardiac cells (RLU per second): increase of intracellular calcium concentration
[5]
  luminescence in the heart: luminescence was observed
